Here are results for five compounds from US20250129070A1, “BIFUNCTIONAL ANDROGEN RECEPTOR COMPOUNDS” (priority 2023, published 2025).

Read-outs that look alike come from different tables or passages of the source.

What all share (assay type): cell-based
Test [1] deals with Histone H3.3/CBP-BD Interaction (Homo sapiens, UniProt Q92793). Kind of test: NanoBRET cellular assay (Histone H3.3/CBP-BD Interaction Assay).
Test [2] deals with AR / CBP ternary complex. Kind of test: Ternary complex formation assay (sandwich ELISA, AR capture / CBP detection) in VCaP cell lysates. The settings on record: 1.5 hours treatment, sandwich ELISA (AR capture, CBP or p300 detection). A digest of the protocol: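 VCaP cells (50K/well, 5% charcoal-stripped FBS, ≥3 days) treated with bifunctional compound for 1.5 h, then lysed 30 min at 4 °C. AR captured on anti-AR (AR 441) plates; bound CBP or p300 detected by rabbit mAb plus HRP secondary. QuantaRed chemifluorescence read at ex 570/em 585, immediately and at 5 and 15 min.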

The test system of test [3] is VCaP cells. Description: VCaP growth inhibition assay. To be noted: 30 pM R1881, 9 days, CTG. The method, boiled down: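 VCaP cells in phenol red-free DMEM/5% CSS, pre-incubated 72 h, then stimulated with R1881 (final 30 pM) and treated with 1:5 serial dilutions (final 100 nM to 10 fM) for 9 days at 37 °C. Viability by CellTiter-Glo luminescence; IC50 from 4-parameter logistic fit of RLU vs concentration.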

In test [4] the test system is HEK-293 cells. Kind of test: HEK-293 growth inhibition assay. To be noted: 3 days, CTG. The method, boiled down:
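HEK-293 cells plated 24 hours before compound treatment, then exposed for 3 days at 37°C/5% CO2. Viability by CellTiter-Glo luminescence after 20 minutes at room temperature. IC50 from RLU versus concentration via 4-parameter logistic nonlinear regression.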

Histone H3.3/CBP-BD Interaction, sequence (Q92793 1085-1192 limits assumed): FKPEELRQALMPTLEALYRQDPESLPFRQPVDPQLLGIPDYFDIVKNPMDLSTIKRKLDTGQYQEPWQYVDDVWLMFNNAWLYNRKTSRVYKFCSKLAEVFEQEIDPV

For `CNC(=O)N1CCc2c(c(N3CCCc4cc(-c5cnn(C)c5)c(C(F)F)cc43)nn2C2CCN(C(=O)CN3CCN(c4ncc(C(=O)NC5C(C)(C)C(Oc6ccc(C#N)c(Cl)c6)C5(C)C)cn4)CC3)CC2)C1` (centres unmarked) [Compound 109, 1-[1-[2-[4-[5-[[3-(3-chloro-4-cyano-phenoxy)-2,2,4,4-tetramethyl-cyclobutyl]carbamoyl]pyrimidin-2-yl]piperazin-1-yl]acetyl]-4-piperidyl]-3-[7-(difluoromethyl)-6-(1-methylpyrazol-4-yl)-3,4-dihydro-2H-quinolin-1-yl]-N-methyl-6,7-dihydro-4H-pyrazolo[4,3-c]pyridine-5-carboxamide], the IC50 in test [1] was above 1000 nM; in test [3] it was at most 0.1 nM; in test [4] it was above 10000 nM. In test [2], the EC50 is below 1 nM.

With `CNC(=O)N1CCc2c(c(N3CCCc4cc(-c5cnn(C)c5)c(C(F)F)cc43)nn2C2CCOCC2)C1` [GNE-781, reference compound], the half-inhibitory concentration (IC50) in test [1] (HEK293 cells transfected with Histone H3.3-HaloTag and CBP-BD-NanoLuc, 22 hours treatment, test compounds starting at 1 uM, SGC-CBP-30 starting at 10 uM, 10-dose with 3-fold dilution) was determined as 0.123 nM.

In turn, `CC(=O)N1CCc2c(c(N3CCCc4cc(-c5cnn(C)c5)c(C(F)F)cc43)nn2C2CCN(C(=O)CN3CCN(c4ncc(C(=O)NC5C(C)(C)C(Oc6ccc(C#N)c(Cl)c6)C5(C)C)cn4)CC3)CC2)C1` (centres unmarked) [Compound 96, 2-[4-[2-[4-[5-acetyl-3-[7-(difluoromethyl)-6-(1-methylpyrazol-4-yl)-3,4-dihydro-2H-quinolin-1-yl]-6,7-dihydro-4H-pyrazolo[4,3-c]pyridin-1-yl]-1-piperidyl]-2-oxo-ethyl]piperazin-1-yl]-N-[3-(3-chloro-4-cyano-phenoxy)-2,2,4,4-tetramethyl-cyclobutyl]pyrimidine-5-carboxamide] came in with an EC50 in test [2] below 1 nM. The half-maximal inhibitory concentration (IC50) in test [3] is at most 0.1 nM; in test [4], above 10000 nM.

`CNC(=O)N1CCc2c(c(N3CCCc4cc(-c5cnn(C)c5)c(C(F)F)cc43)nn2C2CCN(C(=O)COCCOCCN3CCN(c4ncc(C(=O)NC5C(C)(C)C(Oc6ccc(C#N)c(Cl)c6)C5(C)C)cn4)CC3)CC2)C1` (centres unmarked) [Compound 103, 1-[1-[2-[2-[2-[4-[5-[[3-(3-chloro-4-cyano-phenoxy)-2,2,4,4-tetramethyl-cyclobutyl]carbamoyl]pyrimidin-2-yl]piperazin-1-yl]ethoxy]ethoxy]acetyl]-4-piperidyl]-3-[7-(difluoromethyl)-6-(1-methylpyrazol-4-yl)-3,4-dihydro-2H-quinolin-1-yl]-N-methyl-6,7-dihydro-4H-pyrazolo[4,3-c]pyridine-5-carboxamide] yielded an EC50 in test [2] below 1 nM. For the same compound, the values for the 50% inhibitory concentration (IC50) in test [3] and in test [4] were 0.1 to 1 nM and above 10000 nM, respectively.

Turning to `CNC(=O)N1CCc2c(c(N3CCCc4cc(-c5cnn(C)c5)c(C(F)F)cc43)nn2C2CCN(C(=O)COCCOCC3CCN(c4ncc(C(=O)NC5C(C)(C)C(Oc6ccc(C#N)c(Cl)c6)C5(C)C)cn4)CC3)CC2)C1` (centres unmarked) [Compound 104, 1-[1-[2-[2-[[1-[5-[[3-(3-chloro-4-cyano-phenoxy)-2,2,4,4-tetramethyl-cyclobutyl]carbamoyl]pyrimidin-2-yl]-4-piperidyl]methoxy]ethoxy]acetyl]-4-piperidyl]-3-[7-(difluoromethyl)-6-(1-methylpyrazol-4-yl)-3,4-dihydro-2H-quinolin-1-yl]-N-methyl-6,7-dihydro-4H-pyrazolo[4,3-c]pyridine-5-carboxamide], in test [2], the 50% effective concentration (EC50) is below 1 nM. Further, the concentration for half-maximal inhibition (IC50) is 0.1 to 1 nM in test [3] and above 10000 nM in test [4].
